Results reported in patent US20050020680A1, “Hydroxyfattysulfonic acid analogs” (priority 2001, published 2005).

Columns and labels:
Rat neutrophils = assay: Elastase production by fMLP stimulation (elastase release inhibition); format: cell-based; settings: elastase release from cytochalasin B-primed rat neutrophils, fMLP 1 μM, 10 minutes preincubation
Protocol: Test for Elastase Production by fMLP (N-formyl-Met-Leu-Phe)Stimulation
Rat neutrophils preparation was obtained 15-18 hours after intraperitoneal injection of a 1% sterile casein solution in saline (120 mL/kg). Cells were harvested by peritoneal lavage after the decapitation. The lavage fluid was ice-cold PBS (Phosphate-Buffered Saline). Peritoneal exudates were pooled, centrifuged and suspended in HBSS (Hanks' Balanced Salt Solution) at 1×10^7 cells/mL. Cytochalasin B (final concentration: 5 μg/mL) were added to prime the cells. The cells were added into a 96-well culture plate (190 μL/well) and then the compounds of the present invention at various concentrations (10^−7 to 3×10^−5 M) were added and incubated at 37° C. in an atmosphere of 5% CO2 in air. […]
Elastase activity in the incubated supernatant was measured using a specific elastase substrate, N-succinyl-L-alanyl-L-alanyl-L-proline-valine-MCA (Peptide Institue, Inc., Osaka), 0.12 mM in 50 mM Tris-HCl (pH 8.0). […]
Elastase release-inhibiting activity (inhibition ratio) was calculated according to the following equation: Inhibition ratio (%) […]×100 wherein A stands for a fluorescence intensity when fMLP (1 μM) was added; B stands for a fluorescence intensity when fMLP (1 μM) and the present compound were added; and C stands for a fluorescence intensity when fMLP (1 μM) was not added. […]

rat t-MCAo model = assay: Infarct volume in rat transient MCA occlusion (t-MCAo) model; format: in vivo, Wistar rats; settings: 0.1 mg/kg/min, intravenous 1 hour infusion immediately after reperfusion; 71 hrs after reperfusion; vs vehicle-treated group, p<0.05 Dunnett's test
Protocol: FIG. 1 represents an effect of compound 33 on infarct volume in rat t-MCAo model.
The infract volumes of total (open column), cortex (closed column) and subcortex (hatched column) were determined 71 hrs after reperfusion. Data are presented as mean±SEM. *p<0.05 vs vehicle-treated group (Dunnett's test).
Effect on the Infarct Volume in Rat Transient MCA Occlusion (t-MCAo) Model.
Adult male Wistar rats (200-250 g) were anesthetized with 2% halothane in air. The right internal carotid artery (ICA) was carefully dissected. A silicon-coated suture (18 mm-long) was inserted into the ICA. Body temperature was maintained at 37° C. with a heating pad. […] After 1 hour of MCA occlusion, the thread was removed to allow reperfusion of the ischemic area. Rats were received intravenously 1 hour-infusion of vehicle (10% of HP-β-CD) or compound 33 dissolved in vehicle immediately after reperfusion.
To measure infarct volume, rats were killed at 71 hours of reperfusion. Brains were perfused transcardially with physiological saline, and removed from skulls, cut into 2-mm coronal sections. The slices were immersed in 2% triphenyltetrazolium chloride (TTC) solution at 37° C. for 30 minutes. All values were presented as mean±SEM. For statistical analyses, Dunnett's multiple-range test was used.

## CCCC[C@@H](O)/C=C\CCCCCCC/C=C\CCCS(=O)(=O)O [Compound 23, Sodium (R)-(4Z, 13Z)-15-hydroxynonadeca-1,13-diene-1-sulfonate]
Rat neutrophils
  IC50: 9.67 µM

## CCCC[C@@H](O)/C=C\CCCCCCCCCCCCS(=O)(=O)[O-].[Na+] [Compound 33, Sodium (R)-(Z)-15-hydroxynonadec-13-ene-1-sulfonate]
Rat neutrophils; Neutrophil
  IC50: 15 µM
Rat t-MCAo model
  cortex infarct volume: significantly reduced
  total infarct volume: significantly reduced
